No end group written: not given here.
Columns and labels:
[1] = test system: TNF-α-induced adhesion of THP-1 to HMEC-1 cells; assay: Monocyte binding assay, TNF-α-induced THP-1 adhesion to HMEC-1; assay type: cell-based, human; conditions: various concentrations, 1 h pretreatment, then 20 ng/ml TNF-α 18 h; three independent experiments (Fig. 4D, Figure S4)
Procedure: (§1) Human micro-vascular endothelial cells-1 (HMEC-1, from American Type Culture Collection Manassas, USA) was cultured in MCDB 131 medium (Sigma, USA) with 15% fetal bovine serum (FBS; Sigma, USA). The medium was supplemented with 1% L-glutamine, 500 µg/ml streptomycin (Biowest, USA), 500 units/ml penicillin (Biowest, USA), 1 μg/ml hydrocortisone (Sigma, USA) and 10 ng/ml Epidermal Growth Factor (ProSpec, USA). The human acute monocytic leukemia cells (THP-1 cells) obtained from the Bioresource Collection and Research Center (Hsinchu, Taiwan) were cultivated in the RPMI-1640 medium (Invitrogen, USA) with 10% FBS. THP-1 were differentiated to macrophage by […] Phorbol 12-myristate 13-acetate (PMA; Sigma, USA) for 24 hours before peptides treatment.
(§2) To perform the test of monocyte adherence to endothelial cells monolayers, the HMEC-1 cell monolayers were cultivated on 24-well plates under serum-starvation condition prior to the monocyte binding assay. The peptides were added to the HMEC-1 cells for one hour prior to the activation by 20 ng/ml TNF-α (Sigma, USA), IL-1β (GOLDBIO, USA) and IL-6 (GOLDBIO, USA) for 18 hours. […] The adhered monocytes were detected and photographed (five images per well) by fluorescent microscopy and the amount of stuck THP-1 cells were counted by the software AlphaImager 2200 (Alpha Innotech, USA).

[2] = test system: IL-1β-induced adhesion of THP-1 to HMEC-1 cells; assay: Monocyte binding assay, IL-1β-induced THP-1 adhesion to HMEC-1; assay type: cell-based, human; conditions: various concentrations, 1 h pretreatment, then 20 ng/ml IL-1β 18 h; three independent experiments (Figure S4)
Procedure: as §1, §2

[3] = test system: IL-6-induced adhesion of THP-1 to HMEC-1 cells; assay: Monocyte binding assay, IL-6-induced THP-1 adhesion to HMEC-1; assay type: cell-based, human; conditions: various concentrations, 1 h pretreatment, then 20 ng/ml IL-6 18 h; three independent experiments (Figure S4)
Procedure: as §1, §2

[4] = test system: TNF-α mRNA expression in HMEC-1 cells; assay: qPCR of cytokine-induced TNF-α mRNA in HMEC-1; assay type: cell-based, human; conditions: qPCR relative to GAPDH
Procedure: as §1
(§3) Cells were grown to confluence in 6-cm^2 culture plates. Peptides were incubated with TNF-α (20 ng/ml) for 1 h and then treated the cells for 4 h. […] An aliquot (5 µg) of purified RNA was reverse transcribed into first-strand complementary DNA (cDNA) with a 2720 Thermal Cycler (Applied Biosystems, Grand Island, NY, USA), 200 U/μl M-MLV reverse-transcriptase (Invitrogen) and […] oligo(dT)-adapter primers (Invitrogen) in a 20 μl reaction mixture. […] Quantitation of gene expression was conducted relative to GAPDH expression levels.

[5] = test system: white blood cell infiltration in the peritoneal cavity, BABL/c mice; assay: Thioglycollate-induced acute peritonitis model; assay type: in vivo, mouse; conditions: counts at 24 h
Procedure: The animal experiment was used 8- to 10-week-old male BABL/c mice to be the animal model. These mice were purchased from the National Laboratory Animal Breeding and Research Center, Taipei. The mice were housed in a temperature-controlled, light-cycled facility. Peritonitis was induced by an intraperitoneal injection of 4% (w/v) thioglycollate in 1 ml of sterile saline (Sigma–Aldrich, USA). Treatment with saline or peptides (5 mg/kg) was performed 4 h after the administration of thioglycollate by intravenous injection. At 24 h after thioglycollate injection, mice were killed by exposure to CO2, and 5 ml of HBSS was injected into the peritoneal cavity. Cells were obtained by aspirating peritoneal lavage. Differential cell counts were determined using a Hematology Analyzer (KX-21N; Sysmex, USA).

[6] = test system: TNF-α secretion in THP-1 cells; assay: ELISA of IL-1β-induced TNF-α secretion in THP-1; assay type: cell-based, human
From the text: In addition, the decline in cytokine–receptor interactions might suppress cytokine mRNA expression and cytokine production in endothelial cells and monocytes. Treatment with KCF18 suppressed TNF-α mRNA expression following cytokines TNF-α, IL-1β and IL-6 stimulation (Fig. 6). To assess the efficacy of KCF18, we performed the RT-qPCR in THP-1 and HMEC-1 cells and ELISA assay for detecting TNF-α secretion including a TNF-α blocking antibody (R&D systems, USA)[57]–[59] as an additional condition in their experiments. […] We further analyze whether the KCF18 could suppress IL-1β induced TNF-α or TNF-α induced IL-1β expressions by ELISA assay (Supporting Figure S7). […] Since TNF-α blocking antibody captures the TNF-α in the conditioned medium, it may interfere the detection of TNF-α by ELISA (Supporting Figure S7). In summary, indeed, KCF18 expresses the ability to reduce cytokines induced TNF-α mRNA and protein expression. […] We also assessed the ability of KCF18 to inhibit TNF-α-mediated p65 nuclear translocation and endothelial ICAM-1 expression (Supporting Figure S8). […]
Figure S7: Peptide KCF18 and TNF-a antagonist antibody affect the protein expression of cytokine s-induced TNF-α an d I L-1b in TH P-1 cells. TNF-α and IL-1b secretion levels induced by (A) IL-1b and (B) TNF-α in THP-1 were determined using ELISA assays. […]

[7] = test system: TNF-α mRNA expression in THP-1 cells; assay: qPCR of cytokine-induced TNF-α mRNA in THP-1; assay type: cell-based, human; conditions: qPCR relative to GAPDH; TNF-α blocking antibody 1 μg/ml, peptide 500 nM; three independent experiments (Figure S6A)
Procedure: as §1, §3

IL-6 = target: T1, IL-6 (Homo sapiens, UniProt P05231); assay: SPR binding to immobilized IL-6 (Biacore T200); conditions: CM5 chip, IL-6 immobilized (approximately 2000 RU), single cycle, 2, 10, 25, 50, 100 μM peptide, 10 μl/min, 25 °C, monovalent binding model, read-out: equilibrium dissociation KD
T1 construct: purchased GOLDBIO.COM, USA 1110-06
T1 sequence (P05231 30-212): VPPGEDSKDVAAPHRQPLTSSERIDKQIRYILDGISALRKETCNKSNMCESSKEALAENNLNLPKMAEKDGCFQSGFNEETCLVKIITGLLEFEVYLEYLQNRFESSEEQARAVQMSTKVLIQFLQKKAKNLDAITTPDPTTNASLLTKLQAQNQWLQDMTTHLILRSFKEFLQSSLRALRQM
Procedure: The recombinant proteins of TNF-α (catalog^#1130-01), IL-1β (catalog^#1110-01B), and IL-6 (catalog^#1110-06) were purchased from the GOLDBIO.COM, USA.
The peptide KCF18 predicted from molecular docking and MM/PBSA binding free energy calculations were synthesized to confirm whether the peptide can bind to the pro-inflammatory cytokines by using SPR measurements. A Biacore T200 workstation (GE Healthcare, USA) was used for SPR detection. These cytokines (250 μg/ml TNF-α and 400 μg/ml IL-6) were diluted into 10 mM sodium acetate buffer at pH 4.0 and immobilized onto a CM5 sensor chip using amine coupling (EDC-NHS) for 210 secs at a flow rate of 10 μl/min. Approximately 5000 and 2000 response units (RU) of cytokines TNF-α and IL-6 were immobilized on the sensor chip, respectively. The flow channel-1 also treated the EDC-NHS as a reference to reduce the non-specific binding between dextran and peptides. […] The complexes were allowed to associate for 180 secs and then to dissociate for 90 secs. Surfaces were regenerated with an injection of 2 mM MgCl2 at a flow rate of 30 µl/min for 30 secs. A monovalent binding model was used to generate and fit the equilibrium binding curves for each peptide to determine the KD of the binding of peptide KCF18 with the pro-inflammatory cytokines.

HMEC-1 cells = assay: Cell cytotoxic assay (WST-1); assay type: cell-based, human; conditions: WST-1, 24 and 48 hours, 0.5 μM to 5 μM peptide (Figure S5)
Procedure: as §1
To assess whether the peptide KCF18 is toxic to the endothelial cells, 1 × 10^4 cells were placed into 96-well micro-plates and incubated for 2 hours for adherence. After adhesion, the medium with various concentrations of peptides (0.5 μM to 5 μM) were added to the wells. After 24 and 48 hours, the HMEC-1 cells were washed with Hank’s balanced salt solution and the survivals of HMEC-1 were detected by WST-1 assay kit (Roche, USA). The experiment was assessed in quadruplicate and repeated three times.

[8] = target: T2, interleukin-6 (IL-6), recombinant (UniProt P05231 30-212); assay: SPR; Biacore T200; cytokine (about 5000 RU TNF-α, about 2000 RU IL-6) amine-coupled to a CM5 chip; peptide flowed over, single cycle kinetics, KCF18 at 2, 10, 25, 50 and 100 μM, 10 μl/min, 25 °C; steady-state binding isotherm fitted with a monovalent binding model; conditions: both partners purified
T2 construct: IL-6, bought recombinant protein; The simulations used human IL-6 (PDB 2IL6 with a modelled N-terminus); The bought product is probably mature human IL-6 (surmise); Amine-coupled to a CM5 chip for SPR; source: bought: GOLDBIO.COM, USA (catalog #1110-06)

[9] = target: T3, tumor necrosis factor-α (TNF-α), recombinant (UniProt P01375 77-233); assay: as above; conditions: both partners purified
T3 construct: TNF-α, bought recombinant protein; The bought product is probably the soluble mature human form (surmise); Amine-coupled to a CM5 chip for SPR; source: bought: GOLDBIO.COM, USA (catalog #1130-01)
T3 sequence (P01375 77-233): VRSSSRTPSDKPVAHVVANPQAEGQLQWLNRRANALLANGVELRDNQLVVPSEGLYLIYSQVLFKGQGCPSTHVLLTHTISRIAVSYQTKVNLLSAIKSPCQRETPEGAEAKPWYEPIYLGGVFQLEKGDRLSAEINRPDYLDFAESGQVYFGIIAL

## CPLNGSTVYGHLRHCLSCSGTMVKF [CF25, a random peptide with 25 amino acids, negative control]
[1]
  effect on TNF-α-induced monocyte binding to HMEC-1 (in words): could not repress cytokine-increased monocyte binding to HMEC-1 cells
[2]
  effect on IL-1β-induced monocyte binding to HMEC-1 (in words): could not repress cytokine-increased monocyte binding to HMEC-1 cells
[3]
  effect on IL-6-induced monocyte binding to HMEC-1 (in words): could not repress cytokine-increased monocyte binding to HMEC-1 cells
[4]; peptide incubated with TNF-α (20 ng/ml) 1 h, cells treated 4 h, three independent experiments (Fig. 6A)
  TNF-α-induced TNF-α mRNA expression in HMEC-1 (in words): had no inhibitory effect on TNF-α-induced TNF-α mRNA expression
[5]; 5 mg/kg i.v. 4 h after i.p. 4% thioglycollate, mean ± SEM, n = 5 KCF18, n = 7 CF25, n = 6 control, *P < 0.05 vs control (Fig. 7)
  total white blood cell infiltration in the peritoneal cavity (in words): had no potential anti-inflammatory effect

## IL-1β: recombinant IL-1β (GOLDBIO), used as stimulus [reference compound]
[6]; 20 ng/ml IL-1β as stimulus
  induction of TNF-α secretion in THP-1: 2 fold

## KCAKEMFAQKLPYSAVYF [mKCF18, mutant peptide of KCF18]
[4]; TNF-α blocking antibody 1 μg/ml, peptide 500 nM, three independent experiments (Figure S6B)
  TNF-α-induced TNF-α mRNA expression in HMEC-1, antibody comparison (in words): had no inhibitory effect on TNF-α induced TNF-α mRNA expression in both cells
[5]; i.v. 4 h after i.p. thioglycollate, n = 3 for each group (Figure S9)
  WBC infiltration, comparison of mKCF18 with KCF18 (in words): worse than KCF18 peptide
[6]; 20 ng/ml IL-1β, pretreatment with peptide, relative to cell lysate concentration, three independent experiments (Figure S7A)
  IL-1β-induced TNF-α expression in THP-1 (in words): could not inhibit IL-1β induced TNF-α expression
[7]
  TNF-α-induced TNF-α mRNA expression in THP-1, antibody comparison (in words): had no inhibitory effect on TNF-α induced TNF-α mRNA expression in both cells

## KCRKEMFKQKLPYSTVYF [KCF18]
IL-6
  Kd: 111 µM
HMEC-1 cells
  HMEC-1 cell viability vs control cells (in words): no important discrepancy was noticed in cell viability among control cells and peptide-treated cells

B1: composite peptide KCF18 (peptide)
peptide: KCRKEMFKQKLPYSTVYF
notes: designed 18-residue composite peptide: KCRKEM from TNFR1, FKQKLP from IL-1R, YSTVYF from the IL-6 receptor; also called designed peptide KCF18; source: synthetic peptide (GeneMark, GMbiolab Co., Ltd., Taiwan; solid phase)
[8]
  Kd: 112 µM
[9]
  Kd: 60.9 µM

Reference: publication PMC6381106 (Scientific Reports, 2019)
